The text below walks through data of patent publication US8802094B2, “Method of reducing phosphate absorption by administering orally an IgY anti-intestinal sodium phosphate cotransporter type 2B antibody” (Wisconsin Alumni Research Foundation, priority 2006, dated 2014).

The assay relates to chicken intestinal alkaline phosphatase. The experiment in a line: Feeding anti-intestinal alkaline phosphatase egg antibody to chicks with active vitamin D: plasma phosphorous. The class given is in vivo, chicken (Single Comb White Leghorn chicks). The settings on record: leghorn chicks, 10 days. The method, then: Single Comb White Leghorn laying hens were used for antibody production (3 hens per peptide antigen). Chicken intestinal alkaline phosphatase was purchased from Worthington. To prepare a vaccine for each hen 0.5 mg of chicken intestinal alkaline phosphatase was diluted to a final concentration of 0.5 ml PBS and mixed with 0.5 ml of Freund's complete adjuvant (first injection) or incomplete adjuvant (booster vaccination) to form a water in oil emulsification capable of holding a bead when dripped on ice water. The hen was then injected in four sites (each leg and each breast) with 0.25 ml of the vaccine emulsion intramuscularly. The booster injection in incomplete adjuvant occurred 7 days later.
In approximately 30 day lots, egg yolks from each hen were separated from whole eggs, mixed and lyophilized. Dried egg yolk powder containing the antibody was stored at room temperature until use in animal feeding studies.
The chicken model used in this study was described by Biehl and Baker, J. Nutr. 1997, 127:2054-2059 with the exception of antibodies to intestinal alkaline phosphatas. The negative control used in this study was a Pi deficient diet (Pi=inorganic phosphate which are largely mineral phosphates or phosphate from animal tissues and products such as milk and eggs), where the dietary phosphorous used was phytic phosphate. […]

As for `C=C1/C(=C\C=C2/CCC[C@]3(C)[C@@H]([C@H](C)CCCC(C)C)CC[C@@H]23)C[C@@H](O)C[C@@H]1O` [Active vitamin D, 1α-hydroxyvitamin D3], the “effect on plasma phosphorous levels (in words)” value (Pi deficient diet, antibody vs active vitamin D alone, vitamin D vs negative control) is reported as “increased blood phosphorous levels in comparison to the negative control”. Further, the “Plasma phosphate” value (Pi deficient phytic phosphorous diet, 1α-hydroxyvitamin D3 20 μg/kg diet alone or plus antibody 1 g/kg diet) is 6.70 mg/dL.
